In patent US4948880A, “Anthracycline derivatives having cytostatic activity” (Behringwerke Aktiengesellschaft, priority 1986, dated 1990):
Converted amounts (≈) assume the structure as drawn. Where two headings read alike, the source gives them in different places.

Columns and labels:
[1] = system: mouse L1210 leukemia cells; experiment: Formation of L1210 leukemia cell colonies in soft agar (cytostatic activity); format: cell-based; conditions: Mus musculus, colonies > 60 μm, % of untreated control
Experimental: The cytostatic activity of the compounds according to the invention have been tested using mouse L1210 leukemia cells. Use was made for this by the formation of L1210 leukemia cell colonies in agar plates. This method is used to detect the effect of the test substances on the growth behavior of the cells over 1 hour or over several generations. In this connection, with a cell cycle time of 10-12 hours, about 14 consecutive generations are observed in a 7-day duration of the test. In this test, the substances having cytostatic activity according to the invention bring about a reduction, compared with an untreated control sample, in the number of colonies which is to be observed.
Procedure for Determining the Formation of L1210 Leukemia Cell Colonies in Soft Agar
500 leukemia cells per plate were incubated with various concentrations of the test substance at 37° C. for 1 hour. These cells were then washed twice with McCoy 5A medium, 0.3% agar was added, and finally the mixture was poured into Petri dishes. Controls were incubated only with fresh medium. In place of the incubation for one hour, in some cases various concentrations and test substances were mixed with the upper agar layer in order in this way to achieve continuous exposure of the cells throughout the incubation time. After the agar had solidified, the plates were incubated in an incubator at 37° C. for 7 days (5% by volume CO2, 95% relative atmospheric humidity). Thereafter the number of colonies with a diameter of more than 60 μm which had formed was counted. The results have been stated as the number of colonies in treated agar plates as a percentage of the untreated control. The dose-effect graph obtained in this way was used to determine the IC50 as a measure of the activity of the substance. The results for the compounds described here are compiled in Table 1 which follows, comparing with adriamycin.

[2] = light / sunlight; cited from earlier work

SMILES	IC50 ([1]; L1210, 168 h, read-out: Continuous incubation IC50, continuous exposure, test substance mixed with upper agar layer, 7 days, 37° C.)	IC50 ([1]; L1210, read-out: 1 h incubation IC50, 1 hour incubation with test substance at 37° C., then washed, 7 days in agar)	photolytic decomposition on exposure to light [2]
COc1cccc2c1C(=O)c1c(O)c3c(c(O)c1C2=O)C[C@@](O)(C(=O)CO)C[C@@H]3O[C@H]1C[C@H](N)[C@H](O)[C@H](C)O1 [Adriamycin, 7-O-α-L-daunosaminyl-adriamycinone, reference compound]	0.02 µg/mL (≈ 0.0368 µM)	0.04 µg/mL (≈ 0.0736 µM)	photolytically decomposed on exposure to light
CC[C@@]1(O)C[C@H](O[C@H]2C[C@H](N(C)C)[C@H](O[C@H]3C[C@H](O)[C@H](O[C@H]4CCC(=O)[C@H](C)O4)[C@H](C)O3)[C@H](C)O2)c2c(cc3c(c2O)C(=O)c2c(O)cccc2C3=O)[C@H]1C(=O)OC [aclacinomycin A]			undergoes photolytic decomposition to a small extent
COc1cccc2c1C(=O)c1c(O)c3c(c(O)c1C2=O)C[C@@](O)(C(C)=O)C[C@@H]3O[C@H]1C[C@H](N)[C@H](O)[C@H](C)O1 [daunomycin, 7-O-α-L-daunosaminyl-daunomycinone]			photolytically decomposed on exposure to light
